Test results taken from publication PMC3815685 (ACS chemical biology, 2013).

Columns and labels:
PiCSAD = PiCSAD (Polaribacter irgensii, UniProt A4C1C8); experiment: decarboxylation, OPA-HPLC, partially purified enzyme; assay type: biochemical; conditions: PBS pH 7.4, 10 μM PLP, 4 °C
hCSAD = target: T1, hCSAD (Homo sapiens, UniProt Q9Y600); experiment: inhibition of CSA decarboxylation, OPA-HPLC of hypotaurine/taurine; assay type: biochemical
T1 sequence (Q9Y600 1-493): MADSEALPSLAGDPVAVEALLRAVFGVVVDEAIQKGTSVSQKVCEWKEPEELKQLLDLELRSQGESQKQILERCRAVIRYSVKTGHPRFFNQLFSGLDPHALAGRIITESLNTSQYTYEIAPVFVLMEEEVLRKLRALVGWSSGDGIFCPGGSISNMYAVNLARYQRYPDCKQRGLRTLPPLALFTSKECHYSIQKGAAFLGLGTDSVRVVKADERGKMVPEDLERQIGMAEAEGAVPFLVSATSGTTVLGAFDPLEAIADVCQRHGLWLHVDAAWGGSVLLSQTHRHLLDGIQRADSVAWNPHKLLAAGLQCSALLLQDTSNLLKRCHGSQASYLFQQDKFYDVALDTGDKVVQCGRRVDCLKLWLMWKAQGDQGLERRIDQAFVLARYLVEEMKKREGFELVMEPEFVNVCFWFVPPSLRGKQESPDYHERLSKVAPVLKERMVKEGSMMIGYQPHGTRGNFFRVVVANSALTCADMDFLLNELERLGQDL

IC50 (hCSAD)	Compound	decarboxylation, OPA-HPLC, partially purified enzyme (PiCSAD)
	N[C@@H](CS(=O)O)C(=O)O [CSA, cysteine sulfinic acid]	showed decarboxylation of CSA but no detectable activity towards CA or L-Glu
1.1 ± 0.1 mM	N[C@@H](CCC(=O)O)C(=O)O [L-Glu, L-glutamic acid]	
